According to publication PMC9612166 (Molecules, 2022):
Like-named read-outs stand apart in the source and are kept apart here.

Experiments:
[1] = system: nicked decamer 2B (DNA, duplex, nick between T5 and G6) GCGTT/GTCGC/GCGACAACGC; experiment: MALDI-ToF MS; settings: covalent; alkylated product m/z 7296.2 in reaction mother liquor
human Topo I = molecular target: T1, human Topo I (Homo sapiens, UniProt P11387); experiment: Human Topoisomerase I relaxation high-throughput plate assay (fluorescent DNA stain); assay type: biochemical
T1 construct: gene TOP1
T1 sequence (P11387 2-765): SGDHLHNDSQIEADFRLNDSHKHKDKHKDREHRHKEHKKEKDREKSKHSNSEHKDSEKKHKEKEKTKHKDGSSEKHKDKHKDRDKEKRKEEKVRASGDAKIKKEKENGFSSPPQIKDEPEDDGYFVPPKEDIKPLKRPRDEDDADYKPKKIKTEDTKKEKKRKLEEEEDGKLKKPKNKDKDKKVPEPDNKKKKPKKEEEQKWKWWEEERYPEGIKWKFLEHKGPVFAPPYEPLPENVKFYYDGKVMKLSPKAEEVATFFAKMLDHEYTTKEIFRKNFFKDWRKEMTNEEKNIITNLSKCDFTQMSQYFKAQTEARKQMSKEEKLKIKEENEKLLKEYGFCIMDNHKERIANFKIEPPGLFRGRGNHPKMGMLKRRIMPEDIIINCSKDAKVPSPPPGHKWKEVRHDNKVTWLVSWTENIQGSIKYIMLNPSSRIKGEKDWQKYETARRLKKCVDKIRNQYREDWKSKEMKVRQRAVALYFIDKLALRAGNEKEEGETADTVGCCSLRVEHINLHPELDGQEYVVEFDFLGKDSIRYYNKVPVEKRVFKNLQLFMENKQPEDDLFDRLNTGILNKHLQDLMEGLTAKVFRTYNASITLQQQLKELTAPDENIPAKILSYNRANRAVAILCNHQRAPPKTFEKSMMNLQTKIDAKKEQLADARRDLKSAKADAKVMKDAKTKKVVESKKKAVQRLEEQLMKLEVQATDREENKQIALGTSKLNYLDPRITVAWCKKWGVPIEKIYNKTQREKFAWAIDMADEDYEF

[2] = system: nicked decamer 2B (DNA, duplex, nick between T5 and G6) GCGTT/GTCGC/GCGACAACGC; experiment: NOESY/TOCSY NMR; settings: 25 mM NaCl, 25 mM K3PO4; D2O, pH 6, 298 K; stacking at the nick, intermolecular NOEs
[3] = system: nicked decamer 2B (DNA, duplex, nick between T5 and G6) GCGTT/GTCGC/GCGACAACGC; experiment: DOSY NMR diffusion; settings: 25 mM NaCl, 25 mM K3PO4; D2O, pH 6, 298 K; 0.33 mM each; single-point from diffusion coefficients

Structure (SMILES): CCc1c2c(nc3ccc(O)c(CNCCO)c13)-c1cc3c(c(=O)n1C2)COC(=O)[C@]3(O)CC [compound 1, 7-ethyl-9-[N-(2′-hydroxyethyl)amino]methyl-10-hydroxycamptothecin]
- binding [1]: yes
- IC50 (human Topo I): 1.73 ± 0.48 µM
- binding [2]: yes
- Ka [3]: 746.0 mM⁻¹

Structure (SMILES): CCc1c2c(nc3ccc(O)cc13)-c1cc3c(c(=O)n1C2)COC(=O)[C@]3(O)CC [SN38, reference compound]
- IC50 (human Topo I; read-out: SN38): 7.37 ± 7.1 µM
